Test results published in the NIST ThermoML archive (doi:10.1021/je900482x).
Numbers after ± are expanded uncertainties.

assay: isobaric coefficient of expansion; conditions: 348.15 K; 5000 kPa; Liquid; Microcalorimeter

With `CCn1cc[n+](C)c1.F[B-](F)(F)F` [1-ethyl-3-methylimidazolium tetrafluoroborate] as the compound, how does the “isobaric coefficient of expansion” value read?
The value was 0.000579 ± 1.4e-05 1/K.

With `CCCCCC[n+]1ccn(C)c1.O=S(=O)([N-]S(=O)(=O)C(F)(F)F)C(F)(F)F` as the compound, how does the “isobaric coefficient of expansion” value read?
Its value is 0.000644 ± 1.6e-05 1/K.

For `CCCCCCCC[n+]1ccn(C)c1.F[B-](F)(F)F` [1-methyl-3-octylimidazolium tetrafluoroborate], which “isobaric coefficient of expansion” value is on record?
The value was 0.000588 ± 1.2e-05 1/K.

With `CCCC[n+]1cccc(C)c1.F[B-](F)(F)F` [1-butyl-3-methylpyridinium tetrafluoroborate] as the compound, how does the “isobaric coefficient of expansion” value read?
Its value is 0.000568 ± 1.4e-05 1/K.

With `CCCCCCn1cc[n+](C)c1.F[B-](F)(F)F` [1-hexyl-3-methylimidazolium tetrafluoroborate] as the compound, how does the “isobaric coefficient of expansion” value read?
The value was 0.000588 ± 1.4e-05 1/K.

With `CCn1cc[n+](C)c1.O=S(=O)([N-]S(=O)(=O)C(F)(F)F)C(F)(F)F` as the compound, how does the “isobaric coefficient of expansion” value read?
The value was 0.00064 ± 1.6e-05 1/K.

same assay, conditions: 348.15 K; 10000 kPa; Liquid; Microcalorimeter

For `CCn1cc[n+](C)c1.F[B-](F)(F)F` [1-ethyl-3-methylimidazolium tetrafluoroborate], which “isobaric coefficient of expansion” value is on record?
Its value is 0.000574 ± 1.4e-05 1/K.

Which “isobaric coefficient of expansion” value does the source give for `CCCCCC[n+]1ccn(C)c1.O=S(=O)([N-]S(=O)(=O)C(F)(F)F)C(F)(F)F` here?
The value was 0.000635 ± 1.6e-05 1/K.

For `CCCCCCCC[n+]1ccn(C)c1.F[B-](F)(F)F` [1-methyl-3-octylimidazolium tetrafluoroborate], which “isobaric coefficient of expansion” value is on record?
Its value is 0.000582 ± 1.2e-05 1/K.

With `CCCC[n+]1cccc(C)c1.F[B-](F)(F)F` [1-butyl-3-methylpyridinium tetrafluoroborate] as the compound, how does the “isobaric coefficient of expansion” value read?
Its value is 0.000562 ± 1.4e-05 1/K.

For `CCCCCCn1cc[n+](C)c1.F[B-](F)(F)F` [1-hexyl-3-methylimidazolium tetrafluoroborate], which “isobaric coefficient of expansion” value is on record?
The value was 0.000582 ± 1.4e-05 1/K.

Which “isobaric coefficient of expansion” value does the source give for `CCn1cc[n+](C)c1.O=S(=O)([N-]S(=O)(=O)C(F)(F)F)C(F)(F)F` here?
The value was 0.000629 ± 1.5e-05 1/K.

same assay, conditions: 348.15 K; 15000 kPa; Liquid; Microcalorimeter

With `CCn1cc[n+](C)c1.F[B-](F)(F)F` [1-ethyl-3-methylimidazolium tetrafluoroborate] as the compound, how does the “isobaric coefficient of expansion” value read?
The value was 0.000566 ± 1.4e-05 1/K.

With `CCCCCC[n+]1ccn(C)c1.O=S(=O)([N-]S(=O)(=O)C(F)(F)F)C(F)(F)F` as the compound, how does the “isobaric coefficient of expansion” value read?
The value was 0.000623 ± 1.5e-05 1/K.

With `CCCCCCCC[n+]1ccn(C)c1.F[B-](F)(F)F` [1-methyl-3-octylimidazolium tetrafluoroborate] as the compound, how does the “isobaric coefficient of expansion” value read?
Its value is 0.000572 ± 1.1e-05 1/K.

Which “isobaric coefficient of expansion” value does the source give for `CCCC[n+]1cccc(C)c1.F[B-](F)(F)F` [1-butyl-3-methylpyridinium tetrafluoroborate] here?
Its value is 0.000557 ± 1.4e-05 1/K.

Which “isobaric coefficient of expansion” value does the source give for `CCCCCCn1cc[n+](C)c1.F[B-](F)(F)F` [1-hexyl-3-methylimidazolium tetrafluoroborate] here?
Its value is 0.000572 ± 1.4e-05 1/K.

For `CCn1cc[n+](C)c1.O=S(=O)([N-]S(=O)(=O)C(F)(F)F)C(F)(F)F`, which “isobaric coefficient of expansion” value is on record?
The value was 0.00062 ± 1.5e-05 1/K.

same assay, conditions: 348.15 K; 20000 kPa; Liquid; Microcalorimeter

With `CCn1cc[n+](C)c1.F[B-](F)(F)F` [1-ethyl-3-methylimidazolium tetrafluoroborate] as the compound, how does the “isobaric coefficient of expansion” value read?
Its value is 0.000562 ± 1.4e-05 1/K.

For `CCCCCC[n+]1ccn(C)c1.O=S(=O)([N-]S(=O)(=O)C(F)(F)F)C(F)(F)F`, which “isobaric coefficient of expansion” value is on record?
Its value is 0.00061 ± 1.5e-05 1/K.

Which “isobaric coefficient of expansion” value does the source give for `CCCCCCCC[n+]1ccn(C)c1.F[B-](F)(F)F` [1-methyl-3-octylimidazolium tetrafluoroborate] here?
The value was 0.000563 ± 1.1e-05 1/K.

Which “isobaric coefficient of expansion” value does the source give for `CCCC[n+]1cccc(C)c1.F[B-](F)(F)F` [1-butyl-3-methylpyridinium tetrafluoroborate] here?
The value was 0.000554 ± 1.4e-05 1/K.

With `CCCCCCn1cc[n+](C)c1.F[B-](F)(F)F` [1-hexyl-3-methylimidazolium tetrafluoroborate] as the compound, how does the “isobaric coefficient of expansion” value read?
Its value is 0.000563 ± 1.4e-05 1/K.

For `CCn1cc[n+](C)c1.O=S(=O)([N-]S(=O)(=O)C(F)(F)F)C(F)(F)F`, which “isobaric coefficient of expansion” value is on record?
Its value is 0.000612 ± 1.5e-05 1/K.

same assay, conditions: 348.15 K; 25000 kPa; Liquid; Microcalorimeter

Which “isobaric coefficient of expansion” value does the source give for `CCn1cc[n+](C)c1.F[B-](F)(F)F` [1-ethyl-3-methylimidazolium tetrafluoroborate] here?
Its value is 0.000554 ± 1.4e-05 1/K.

Which “isobaric coefficient of expansion” value does the source give for `CCCCCC[n+]1ccn(C)c1.O=S(=O)([N-]S(=O)(=O)C(F)(F)F)C(F)(F)F` here?
Its value is 0.000602 ± 1.5e-05 1/K.

For `CCCCCCCC[n+]1ccn(C)c1.F[B-](F)(F)F` [1-methyl-3-octylimidazolium tetrafluoroborate], which “isobaric coefficient of expansion” value is on record?
Its value is 0.000555 ± 1.1e-05 1/K.

Which “isobaric coefficient of expansion” value does the source give for `CCCC[n+]1cccc(C)c1.F[B-](F)(F)F` [1-butyl-3-methylpyridinium tetrafluoroborate] here?
The value was 0.000548 ± 1.3e-05 1/K.

With `CCCCCCn1cc[n+](C)c1.F[B-](F)(F)F` [1-hexyl-3-methylimidazolium tetrafluoroborate] as the compound, how does the “isobaric coefficient of expansion” value read?
Its value is 0.000555 ± 1.4e-05 1/K.

For `CCn1cc[n+](C)c1.O=S(=O)([N-]S(=O)(=O)C(F)(F)F)C(F)(F)F`, which “isobaric coefficient of expansion” value is on record?
Its value is 0.000602 ± 1.5e-05 1/K.

same assay, conditions: 348.15 K; 30000 kPa; Liquid; Microcalorimeter

Which “isobaric coefficient of expansion” value does the source give for `CCn1cc[n+](C)c1.F[B-](F)(F)F` [1-ethyl-3-methylimidazolium tetrafluoroborate] here?
The value was 0.000546 ± 1.3e-05 1/K.

With `CCCCCC[n+]1ccn(C)c1.O=S(=O)([N-]S(=O)(=O)C(F)(F)F)C(F)(F)F` as the compound, how does the “isobaric coefficient of expansion” value read?
The value was 0.000592 ± 1.5e-05 1/K.

With `CCCCCCCC[n+]1ccn(C)c1.F[B-](F)(F)F` [1-methyl-3-octylimidazolium tetrafluoroborate] as the compound, how does the “isobaric coefficient of expansion” value read?
The value was 0.000548 ± 1.1e-05 1/K.

With `CCCC[n+]1cccc(C)c1.F[B-](F)(F)F` [1-butyl-3-methylpyridinium tetrafluoroborate] as the compound, how does the “isobaric coefficient of expansion” value read?
The value was 0.000542 ± 1.3e-05 1/K.

With `CCCCCCn1cc[n+](C)c1.F[B-](F)(F)F` [1-hexyl-3-methylimidazolium tetrafluoroborate] as the compound, how does the “isobaric coefficient of expansion” value read?
The value was 0.000548 ± 1.3e-05 1/K.

Which “isobaric coefficient of expansion” value does the source give for `CCn1cc[n+](C)c1.O=S(=O)([N-]S(=O)(=O)C(F)(F)F)C(F)(F)F` here?
Its value is 0.000595 ± 1.5e-05 1/K.

same assay, conditions: 348.15 K; 35000 kPa; Liquid; Microcalorimeter

For `CCn1cc[n+](C)c1.F[B-](F)(F)F` [1-ethyl-3-methylimidazolium tetrafluoroborate], which “isobaric coefficient of expansion” value is on record?
Its value is 0.00054 ± 1.3e-05 1/K.

With `CCCCCC[n+]1ccn(C)c1.O=S(=O)([N-]S(=O)(=O)C(F)(F)F)C(F)(F)F` as the compound, how does the “isobaric coefficient of expansion” value read?
The value was 0.000584 ± 1.4e-05 1/K.

With `CCCCCCCC[n+]1ccn(C)c1.F[B-](F)(F)F` [1-methyl-3-octylimidazolium tetrafluoroborate] as the compound, how does the “isobaric coefficient of expansion” value read?
The value was 0.000543 ± 1.1e-05 1/K.

For `CCCC[n+]1cccc(C)c1.F[B-](F)(F)F` [1-butyl-3-methylpyridinium tetrafluoroborate], which “isobaric coefficient of expansion” value is on record?
The value was 0.00054 ± 1.3e-05 1/K.

With `CCCCCCn1cc[n+](C)c1.F[B-](F)(F)F` [1-hexyl-3-methylimidazolium tetrafluoroborate] as the compound, how does the “isobaric coefficient of expansion” value read?
The value was 0.000543 ± 1.3e-05 1/K.

Which “isobaric coefficient of expansion” value does the source give for `CCn1cc[n+](C)c1.O=S(=O)([N-]S(=O)(=O)C(F)(F)F)C(F)(F)F` here?
Its value is 0.000588 ± 1.4e-05 1/K.

same assay, conditions: 348.15 K; 40000 kPa; Liquid; Microcalorimeter

With `CCn1cc[n+](C)c1.F[B-](F)(F)F` [1-ethyl-3-methylimidazolium tetrafluoroborate] as the compound, how does the “isobaric coefficient of expansion” value read?
Its value is 0.000533 ± 1.3e-05 1/K.

With `CCCCCC[n+]1ccn(C)c1.O=S(=O)([N-]S(=O)(=O)C(F)(F)F)C(F)(F)F` as the compound, how does the “isobaric coefficient of expansion” value read?
The value was 0.000575 ± 1.4e-05 1/K.

With `CCCCCCCC[n+]1ccn(C)c1.F[B-](F)(F)F` [1-methyl-3-octylimidazolium tetrafluoroborate] as the compound, how does the “isobaric coefficient of expansion” value read?
Its value is 0.000535 ± 1.1e-05 1/K.

With `CCCC[n+]1cccc(C)c1.F[B-](F)(F)F` [1-butyl-3-methylpyridinium tetrafluoroborate] as the compound, how does the “isobaric coefficient of expansion” value read?
The value was 0.000534 ± 1.3e-05 1/K.

For `CCCCCCn1cc[n+](C)c1.F[B-](F)(F)F` [1-hexyl-3-methylimidazolium tetrafluoroborate], which “isobaric coefficient of expansion” value is on record?
Its value is 0.000535 ± 1.3e-05 1/K.

Which “isobaric coefficient of expansion” value does the source give for `CCn1cc[n+](C)c1.O=S(=O)([N-]S(=O)(=O)C(F)(F)F)C(F)(F)F` here?
The value was 0.000579 ± 1.4e-05 1/K.

same assay, conditions: 348.15 K; 45000 kPa; Liquid; Microcalorimeter

With `CCn1cc[n+](C)c1.F[B-](F)(F)F` [1-ethyl-3-methylimidazolium tetrafluoroborate] as the compound, how does the “isobaric coefficient of expansion” value read?
Its value is 0.000527 ± 1.3e-05 1/K.

For `CCCCCC[n+]1ccn(C)c1.O=S(=O)([N-]S(=O)(=O)C(F)(F)F)C(F)(F)F`, which “isobaric coefficient of expansion” value is on record?
The value was 0.000567 ± 1.4e-05 1/K.

Which “isobaric coefficient of expansion” value does the source give for `CCCCCCCC[n+]1ccn(C)c1.F[B-](F)(F)F` [1-methyl-3-octylimidazolium tetrafluoroborate] here?
The value was 0.000529 ± 1.1e-05 1/K.

For `CCCC[n+]1cccc(C)c1.F[B-](F)(F)F` [1-butyl-3-methylpyridinium tetrafluoroborate], which “isobaric coefficient of expansion” value is on record?
The value was 0.000529 ± 1.3e-05 1/K.

For `CCCCCCn1cc[n+](C)c1.F[B-](F)(F)F` [1-hexyl-3-methylimidazolium tetrafluoroborate], which “isobaric coefficient of expansion” value is on record?
The value was 0.000529 ± 1.3e-05 1/K.

For `CCn1cc[n+](C)c1.O=S(=O)([N-]S(=O)(=O)C(F)(F)F)C(F)(F)F`, which “isobaric coefficient of expansion” value is on record?
Its value is 0.000572 ± 1.4e-05 1/K.

same assay, conditions: 348.15 K; 50000 kPa; Liquid; Microcalorimeter

With `CCn1cc[n+](C)c1.F[B-](F)(F)F` [1-ethyl-3-methylimidazolium tetrafluoroborate] as the compound, how does the “isobaric coefficient of expansion” value read?
Its value is 0.000521 ± 1.3e-05 1/K.

With `CCCCCC[n+]1ccn(C)c1.O=S(=O)([N-]S(=O)(=O)C(F)(F)F)C(F)(F)F` as the compound, how does the “isobaric coefficient of expansion” value read?
Its value is 0.000559 ± 1.4e-05 1/K.

For `CCCCCCCC[n+]1ccn(C)c1.F[B-](F)(F)F` [1-methyl-3-octylimidazolium tetrafluoroborate], which “isobaric coefficient of expansion” value is on record?
Its value is 0.000522 ± 1e-05 1/K.

For `CCCC[n+]1cccc(C)c1.F[B-](F)(F)F` [1-butyl-3-methylpyridinium tetrafluoroborate], which “isobaric coefficient of expansion” value is on record?
The value was 0.000526 ± 1.3e-05 1/K.

Which “isobaric coefficient of expansion” value does the source give for `CCCCCCn1cc[n+](C)c1.F[B-](F)(F)F` [1-hexyl-3-methylimidazolium tetrafluoroborate] here?
The value was 0.000522 ± 1.3e-05 1/K.

With `CCn1cc[n+](C)c1.O=S(=O)([N-]S(=O)(=O)C(F)(F)F)C(F)(F)F` as the compound, how does the “isobaric coefficient of expansion” value read?
Its value is 0.000565 ± 1.4e-05 1/K.
